Values joined by “and” are separate entries in the source; they are usually repeats but may differ in a detail not shown here. Identical values can stand only once. Like-named read-outs stand apart in the source and are kept apart here.
Columns and labels:
Experiment in all cases: cells
NCI-H1975 NSCLC cells = system: NCI-H1975 NSCLC cells
Protocol: (§1) The percentage of growth inhibition was calculated as follows: […]

human cancer cell lines = system: human cancer cell lines
Protocol: as §1

Ovary TOV21G cells = system: Ovary TOV21G cells
Protocol: as §1

Ovary SKOV3 cells = system: Ovary SKOV3 cells
Protocol: as §1

Prostate PC3 cells = system: Prostate PC3 cells
Protocol: as §1

Prostate DU145 cells = system: Prostate DU145 cells
Protocol: as §1

Prostate LNCaP cells = system: Prostate LNCaP cells
Protocol: as §1

A549 NSCLC cells = system: A549 NSCLC cells
Protocol: as §1

[1] = 48-h treatment, amifostine ND = not definable up to 500 µM
[2] = read-out: LC50, 48-h treatment, amifostine ND = not definable up to 500 µM
[3] = 1LP65: average across 11 cell lines, 48 h
[4] = 15 cell lines for 4SP65, 11 for 1LP65
[5] = average of HCC38, MDA-MB-231, H1975, DU145, PC3
[6] = averages of dose-response metrics across the panel
[7] = averages over 11 cell lines, minimal fold differences
[8] = pretreated with 1 mM DFMO for 24 h, then 48 h
[9] = without DFMO pretreatment, 48 h

Question: Which results are given for `COCCOCCOCCOCCOCCOCCSSCCNCCCN.O=C(O)C(F)(F)F.O=C(O)C(F)(F)F` [1LP65, m-PEG6-S-S-WR1065]?
Answer: GI50 (NCI-H1975 NSCLC cells; [1]): 38.9 ± 2 µM; IC50 (NCI-H1975 NSCLC cells; [1]): 52.3 ± 4.4 µM; LC99 (NCI-H1975 NSCLC cells; [1]): 86.8 ± 2.7 µM; TGI (NCI-H1975 NSCLC cells; [1]): 51.8 ± 4.9 µM; Dose reduction value AMF ÷ 1LP65 (NCI-H1975 NSCLC cells; at GI50): 3.3 fold; CC50 (NCI-H1975 NSCLC cells; [2]): 63.3 ± 5.2 µM; fold greater effect than amifostine (human cancer cell lines): 2.1 fold; LC99, All cell lines (human cancer cell lines; [3]): 126 ± 15.8 µM; TGI, All cell lines (human cancer cell lines; [3]): 69.3 ± 10.3 µM; LC99, range for individual cell lines (human cancer cell lines; [4]): 83.5 to 234 µM; TGI, range for individual cell lines (human cancer cell lines; [4]): 32.7 to 126 µM; fold lower concentrations in TP53-mutant compared to TP53 wild-type cell lines (human cancer cell lines; H1437 and TOV21G excluded, across dose-response metrics): ~ 1.8 fold; LC99, TP53 Wild-Type (human cancer cell lines; average of A549, H460, LNCaP): 161 ± 20.4 µM; TGI, TP53 Wild-Type (human cancer cell lines; average of A549, H460, LNCaP): 101 ± 20.1 µM; LC99, TP53 Mutant (human cancer cell lines; [5]): 95.1 ± 9.9 µM; TGI, TP53 Mutant (human cancer cell lines; [5]): 52.0 ± 7.3 µM; fold more potent than amifostine as a cytostatic agent, average (human cancer cell lines; [6]): 5.9 fold; fold more potent than amifostine as a cytostatic agent, range (human cancer cell lines; [6]): 5.0- to 6.4 fold; Fold difference in drug potency vs amifostine: GI50 (human cancer cell lines; [7]): > 5.0; Fold difference in drug potency vs amifostine: IC50 (human cancer cell lines; [7]): > 6.4; Fold difference in drug potency vs amifostine: TGI (human cancer cell lines; [7]): > 6.3; GI50 (human cancer cell lines; read-out: GI50, All cell lines, 1LP65: average across 11 cell lines, 48 h): 41.2 ± 5.4 µM; GI50 (human cancer cell lines; read-out: GI50, TP53 Mutant, average of HCC38, MDA-MB-231, H1975, DU145, PC3): 33.3 ± 3.7 µM; GI50 (human cancer cell lines; read-out: GI50, TP53 Wild-Type, average of A549, H460, LNCaP): 52.7 ± 12.4 µM; GI50 (human cancer cell lines; read-out: GI50, range for individual cell lines, 15 cell lines for 4SP65, 11 for 1LP65): 21.3 to 77.7 µM; CC50 (human cancer cell lines; read-out: LC50, All cell lines, 1LP65: average across 11 cell lines, 48 h): 94.6 ± 12.8 µM; CC50 (human cancer cell lines; read-out: LC50, TP53 Mutant, average of HCC38, MDA-MB-231, H1975, DU145, PC3): 72.9 ± 9.5 µM; CC50 (human cancer cell lines; read-out: LC50, TP53 Wild-Type, average of A549, H460, LNCaP): 133 ± 19.1 µM; CC50 (human cancer cell lines; read-out: LC50, range for individual cell lines, 15 cell lines for 4SP65, 11 for 1LP65): 51.3 to 157 µM; GI50 (human cancer cell lines; read-out: average GI50): 30.4 µM; GI50 (Ovary TOV21G cells; [1]): 21.3 ± 3.8 µM; IC50 (Ovary TOV21G cells; [1]): 26.3 ± 3.6 µM; LC99 (Ovary TOV21G cells; [1]): 92.0 ± 2.8 µM; TGI (Ovary TOV21G cells; [1]): 32.7 ± 6.2 µM; Dose reduction value AMF ÷ 1LP65 (Ovary TOV21G cells; at GI50): 2.2 fold; Dose reduction value AMF ÷ 1LP65 (Ovary TOV21G cells; at IC50): 1.6 fold; CC50 (Ovary TOV21G cells; [2]): 51.3 ± 12.2 µM; GI50 (Ovary SKOV3 cells; [1]): 40.9 ± 0.5 µM; IC50 (Ovary SKOV3 cells; [1]): 45.5 ± 2.5 µM; LC99 (Ovary SKOV3 cells; [1]): 98.9 ± 8.6 µM; TGI (Ovary SKOV3 cells; [1]): 50.3 ± 2.0 µM and 50.3 µM; Dose reduction value AMF ÷ 1LP65 (Ovary SKOV3 cells; at GI50): 2.0 fold; Dose reduction value AMF ÷ 1LP65 (Ovary SKOV3 cells; at IC50): 6.5 fold; CC50 (Ovary SKOV3 cells; [2]): 68.8 ± 1.8 µM; GI50 (Prostate PC3 cells; [1]): 22.9 ± 1.8 µM; IC50 (Prostate PC3 cells; [1]): 37.5 ± 4.6 µM; LC99 (Prostate PC3 cells; [1]): 86.3 ± 8.9 µM; TGI (Prostate PC3 cells; [1]): 40.5 ± 2.8 µM and 40.5 µM; Dose reduction value AMF ÷ 1LP65 (Prostate PC3 cells; at GI50): 2.3 fold; Dose reduction value AMF ÷ 1LP65 (Prostate PC3 cells; at IC50): 2.8 fold; Dose reduction value AMF ÷ 1LP65 (Prostate PC3 cells; at TGI): 7.4 fold; CC50 (Prostate PC3 cells; [2]): 60 ± 1.1 µM; GI50 (Prostate DU145 cells; [1]): 26.3 ± 3.8 µM; IC50 (Prostate DU145 cells; [1]): 39.8 ± 3.1 µM; LC99 (Prostate DU145 cells; [1]): 83.5 ± 5.5 µM; TGI (Prostate DU145 cells; [1]): 52.8 ± 5.3 µM and 52.8 µM; Dose reduction value AMF ÷ 1LP65 (Prostate DU145 cells; at GI50): 4.8 fold; Dose reduction value AMF ÷ 1LP65 (Prostate DU145 cells; at IC50): 8.0 fold; CC50 (Prostate DU145 cells; [2]): 71.4 ± 4.3 µM; GI50 (Prostate LNCaP cells; [1]): 28.3 ± 1.9 µM; IC50 (Prostate LNCaP cells; [1]): 44.3 ± 2.8 µM; LC99 (Prostate LNCaP cells; [1]): 114 ± 8.4 µM; TGI (Prostate LNCaP cells; [1]): 51.7 ± 3.8 µM; Dose reduction value AMF ÷ 1LP65 (Prostate LNCaP cells; at GI50): 5.3 fold; Dose reduction value AMF ÷ 1LP65 (Prostate LNCaP cells; at IC50): 8.5 fold; CC50 (Prostate LNCaP cells; [2]): 88.8 ± 7.1 µM; CC50 (A549 NSCLC cells): 155 ± 8 µM; GI50 (A549 NSCLC cells): 52.3 µM and 52 µM; IC50 (A549 NSCLC cells): 66.6 ± 7.9 µM; LC99 (A549 NSCLC cells): 187 ± 11 µM; TGI (A549 NSCLC cells): 126 ± 3 µM and 126 µM; Dose reduction value AMF ÷ 1LP65 (A549 NSCLC cells; at GI50): 5.5 fold; Dose reduction value AMF ÷ 1LP65 (A549 NSCLC cells; at IC50): 4.4 fold; GI50 (A549 NSCLC cells; [8]): 17.1 µM; IC50 (A549 NSCLC cells; [8]): 33.1 µM; GI50 (A549 NSCLC cells; [9]): 38.6 µM; IC50 (A549 NSCLC cells; [9]): 51 µM
